In article PMC9080259, “Dual-cycle immobilization to reuse both enzyme and support by reblossoming enzyme–inorganic hybrid nanoflowers” (RSC Advances, 2018):
Counter-ions that a name gives are not always drawn.

Tested on: T1, Bromelain
T1 construct: commercial native preparation
Assay: absorbance at […] nm, hydrolysis
Assay type: biochemical
Settings: free enzyme; 37 °C; pH not told; substrate of the kinetics taken from the activity assay

Km: 930 ± 40 µM
SMILES: CCOC(=O)[C@H](CCCN=C(N)N)NC(=O)c1ccccc1 [N-Benzoyl-L-arginine ethyl ester hydrochloride]
